The values that follow come from paper PMC11997881, “Comprehensive Characterization of Bruton’s Tyrosine Kinase Inhibitor Specificity, Potency, and Biological Effects: Insights into Covalent and Noncovalent Mechanistic Signatures” (ACS Pharmacology & Translational Science, 2025).

Assay [1] deals with 468 kinases/kinase domains. Particulars: scanMAX at 1 μM; for selectivity: category by number of off-targets.
Description: The compounds were diluted directly into the assays such that the final concentration of DMSO was 0.9%. No enzyme purification steps were performed on the protein extracts before adding them to the reaction mixture, and the protein extracts were diluted 10,000-fold in the final reaction mixture (the final DNA-tagged enzyme concentration was less than 0.1 nM). Binding assay mixtures were incubated at 25 °C with shaking for 1 h. […] The concentration of wild-type or mutant BTK in the eluates was then determined using quantitative PCR.
In assay [2] the test system is BTK C481S in TMD8 cells. To be noted: IC50 measured in TMD8 cells (not in vitro); read-out: average published IC50 for BTK C481S; cited from earlier work.
The target of assay [3] is BTK C481S. To be noted: average of literature values; read-out: average published Kd for BTK C481S; cited from earlier work.
Assay [4] addresses T1, BTK (Homo sapiens, UniProt Q06187).
T1 construct: host or cells: transiently transfected HEK293 cells
In words: scanMAX binding POC, BTK. Particulars: 1 μM; zero POC = competition comparable to positive control. The text has this:
Comprehensive Characterization of Bruton’s Tyrosine Kinase Inhibitor Specificity, Potency, and
Biological Effects: Insights into Covalent and Non-Covalent Mechanistic Signatures
Antonia C. Darragh1, Andrew M. Hanna1, Justin H. Lipner2, Alastair J. King2, Nicole B. Servant1, Mirza Jahic1*
*To whom correspondence should be addressed: Mirza Jahic, e-mail address: Mirza.Jahic@discovery.eurofinsus.com
Supporting Table S1. Comparison of BTK inhibitor specificity to TEC family members. TEC family members are
Burton’s tyrosine kinase (BTK), tyrosine kinase expressed in hepatocellular carcinoma (TEC), bone marrow-
expressed kinase (BMX/ETK), and T cell-expressed kinase (TXK/RLK), and interleukin-2-inducible T cell kinase
A zero POC signifies that the compound

Assay [5] addresses T2, BTK C481S (Homo sapiens, UniProt Q06187, C481S).
T2 construct: made in house; host or cells: transiently transfected HEK293 cells (unpurified extract)
In words: KdELECT competition binding, mutant BTK C481S. The protocol: Protein extracts were harvested in M-PER extraction buffer (Pierce Biotechnology, Rockford, IL) supplemented with 150 mM NaCl, 10 mM Dithiothreitol (DTT), Protease Inhibitor Cocktail Complete (Roche Diagnostics GmbH, Mannheim, Germany), and Phosphatase Inhibitor Cocktail Set II (Merck KGaA, Darmstadt, Germany) following the manufacturer’s guidelines. The fusion protein was labeled with a DNA tag containing the NFκB binding site fused to an amplicon for qPCR readout, which was added directly to the expression extract.
Kds were calculated using a standard dose–response curve fitting of the data using the Hill equation: Response = Background + (Signal – Background)/(1 + (Kd ^Hill Slope/Dose^Hill Slope). The Hill Slope was set to −1. A nonlinear least-square fit using the Levenberg–Marquardt algorithm was employed for curve fitting.

Assay [6] has as its target BTK. To be noted: wild-type BTK; average of literature values; read-out: average published Kd for BTK; cited from earlier work.
Assay [7] concerns BTK C481S. To be noted: literature values; read-out: average published IC50 for BTK C481S; cited from earlier work.
Setting [8] is: ATP-independent in vitro binding, 25 °C, read-out: Kd for BTK C481S.
Where [9] appears, read: N = 1, technical duplicate, read-out: average in-house Kd for BTK C481S.
Setting [10] is: category by Kd for BTK C481S, read-out: potency for BTK C481S.

SMILES strings stand for the structures. Read-outs that look alike come from different tables or passages of the source.

T2 sequence (Q06187 whole entry C481S): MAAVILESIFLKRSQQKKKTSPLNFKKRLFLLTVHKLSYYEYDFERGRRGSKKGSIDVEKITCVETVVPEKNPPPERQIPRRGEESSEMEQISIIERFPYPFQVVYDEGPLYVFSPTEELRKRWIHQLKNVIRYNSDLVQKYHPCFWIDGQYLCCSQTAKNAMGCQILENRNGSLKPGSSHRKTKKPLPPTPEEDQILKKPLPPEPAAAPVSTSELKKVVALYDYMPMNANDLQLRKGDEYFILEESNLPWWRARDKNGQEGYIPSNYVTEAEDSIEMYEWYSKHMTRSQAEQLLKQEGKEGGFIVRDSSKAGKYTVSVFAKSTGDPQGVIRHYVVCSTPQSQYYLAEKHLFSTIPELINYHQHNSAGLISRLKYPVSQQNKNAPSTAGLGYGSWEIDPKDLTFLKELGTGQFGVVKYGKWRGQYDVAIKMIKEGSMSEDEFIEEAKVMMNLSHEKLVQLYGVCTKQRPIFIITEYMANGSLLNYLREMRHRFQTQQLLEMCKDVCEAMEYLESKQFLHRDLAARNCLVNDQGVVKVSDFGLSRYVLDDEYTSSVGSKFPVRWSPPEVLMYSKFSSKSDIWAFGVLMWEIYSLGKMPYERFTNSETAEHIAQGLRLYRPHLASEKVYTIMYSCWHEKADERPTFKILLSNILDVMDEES
T1 sequence (Q06187 whole entry): as the sequence (Q06187 whole entry C481S) above, with S481C counted along it

Take `COc1ccc(F)cc1C(=O)NCc1ccc(-c2nn([C@@H](C)C(F)(F)F)c(N)c2C(N)=O)cc1` [Pirtobrutinib]: the selectivity entry in assay [1] was “moderate (moderate (12–50 off-targets))”. The IC50 in assay [2] is 4 nM. Besides, the Kd in assay [3] is 2.6 nM; in assay [5] (setting [8]) it was 0.89 nM; in assay [5] (setting [9]), 0.89 nM; in assay [5] (setting [10]) it was less than 1 nM; in assay [6], 0.9 nM. The “BTK binding POC” value in assay [4] is recorded as 0% of control. Moreover, the “fold difference between in-house and published Kd” value in assay [5] (BTK C481S) stood at 2.9 fold.
For `C=CC(=O)N1CCC[C@@H](c2ccc(C(N)=O)c3[nH]ccc23)C1` [Elsubrutinib], in assay [1], the selectivity entry was “high (high (≤11 off-targets))”. Moreover, in assay [4], the “BTK binding POC” value is 0.1% of control. Besides, the Kd in assay [5] (setting [8]) is 460 nM; in assay [5] (setting [9]) it was 460 nM; in assay [5] (setting [10]) it was 100 to 1000 nM; in assay [6], 3.1 nM.
Molecule `O=C(c1ccc(Oc2ccccc2)cc1Cl)c1c[nH]c2ncnc(N[C@@H]3CC[C@@H](CO)OC3)c12` [Nemtabrutinib] had an off-target hits in assay [1] (POC <35) of 97. Also, the “BTK binding POC” value in assay [4] was 0.6% of control. Besides, in assay [7], the IC50 was 0.39 nM. In addition, the Kd in assay [6] was 46 nM.
On to `C=CC(=O)Nc1cccc(Oc2nc(Nc3ccc(N4CCN(C)CC4)cc3)nc3ccoc23)c1` [Poseltinib], for which the selectivity result in assay [1] is “moderate (moderate (12–50 off-targets))”. For the same molecule, the “BTK binding POC” value in assay [4] is reported as 0.1% of control. In addition, the “Kd for BTK C481S” value in assay [5] (ATP-independent in vitro binding, 25 °C) is “did not demonstrate any binding at the concentrations tested”. The Kd in assay [5] (setting [8]), in assay [5] (setting [9]) and in assay [5] (setting [10]) was greater than 1000 nM throughout.
Turning to `C=CC(=O)Nc1cccc(Nc2nc(Nc3ccc(OCCOC)cc3)ncc2F)c1` [Spebrutinib], in assay [4], the “BTK binding POC” value is recorded as 0% of control.
`C[C@H]1CN(C2COC2)CCN1c1ccc(Nc2cc(-c3ccnc(N4CCn5c(cc6c5CC(C)(C)C6)C4=O)c3CO)cn(C)c2=O)nc1` [Fenebrutinib]: the IC50 in assay [2] was 7.8 nM.

By IC50 is commonly meant the concentration that inhibits the measured activity by half.
